Converted amounts (≈) assume the structure as drawn. The source made the active and inactive calls. The rule behind the calls is not given here.
Tests used:
[1] = target: GABA-A receptor; alpha-1/beta-3/gamma-2 (Homo sapiens) (UniProt P14867+P18507+P28472); test: Inverse agonist activity at GABAA alpha-1-beta-3-gamma-2 receptor assessed as modulation of GABA-induced chloride ion flux by electrophysiology assay relative to GABA; format: functional
[2] = target: GABA-A receptor; alpha-5/beta-3/gamma-2 (Homo sapiens) (UniProt P18507+P28472+P31644); test: Inverse agonist activity at GABAA alpha-5-beta-3-gamma-2 receptor assessed as modulation of GABA-induced chloride ion flux by electrophysiology assay relative to GABA; format: functional
[3] = target: T1, GABA-A receptor; alpha-5/beta-3/gamma-2 (Homo sapiens, UniProt P18507+P28472+P31644); test: Displacement of [3H]flumazenil from GABAA alpha-5-beta-3-gamma-2 receptor; format: protein-complex assay
T1 sequence (P18507 whole entry): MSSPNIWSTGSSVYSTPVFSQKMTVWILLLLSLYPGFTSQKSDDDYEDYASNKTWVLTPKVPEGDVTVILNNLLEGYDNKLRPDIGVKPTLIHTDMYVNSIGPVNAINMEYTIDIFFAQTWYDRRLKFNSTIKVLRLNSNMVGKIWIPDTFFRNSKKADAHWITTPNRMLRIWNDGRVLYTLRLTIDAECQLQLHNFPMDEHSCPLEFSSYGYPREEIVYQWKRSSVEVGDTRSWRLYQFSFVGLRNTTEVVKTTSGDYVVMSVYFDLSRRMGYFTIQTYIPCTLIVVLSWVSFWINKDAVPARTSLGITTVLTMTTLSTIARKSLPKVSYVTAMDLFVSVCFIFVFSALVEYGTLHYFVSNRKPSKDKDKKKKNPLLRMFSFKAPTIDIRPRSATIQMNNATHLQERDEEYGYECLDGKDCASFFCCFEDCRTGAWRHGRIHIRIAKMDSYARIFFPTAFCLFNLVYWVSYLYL
T1 sequence (P28472 whole entry): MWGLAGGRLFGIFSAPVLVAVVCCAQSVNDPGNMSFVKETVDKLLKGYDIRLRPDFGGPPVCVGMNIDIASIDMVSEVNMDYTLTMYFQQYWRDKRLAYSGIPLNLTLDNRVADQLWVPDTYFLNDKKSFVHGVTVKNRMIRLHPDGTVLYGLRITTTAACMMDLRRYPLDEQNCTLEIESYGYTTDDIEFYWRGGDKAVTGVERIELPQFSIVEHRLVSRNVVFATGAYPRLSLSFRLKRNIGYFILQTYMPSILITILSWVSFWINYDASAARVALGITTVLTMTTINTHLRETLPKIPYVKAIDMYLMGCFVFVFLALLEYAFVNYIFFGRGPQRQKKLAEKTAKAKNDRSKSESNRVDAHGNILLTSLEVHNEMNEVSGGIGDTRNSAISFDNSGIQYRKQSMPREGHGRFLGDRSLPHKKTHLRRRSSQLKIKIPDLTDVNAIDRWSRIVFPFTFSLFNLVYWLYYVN
T1 sequence (P31644 whole entry): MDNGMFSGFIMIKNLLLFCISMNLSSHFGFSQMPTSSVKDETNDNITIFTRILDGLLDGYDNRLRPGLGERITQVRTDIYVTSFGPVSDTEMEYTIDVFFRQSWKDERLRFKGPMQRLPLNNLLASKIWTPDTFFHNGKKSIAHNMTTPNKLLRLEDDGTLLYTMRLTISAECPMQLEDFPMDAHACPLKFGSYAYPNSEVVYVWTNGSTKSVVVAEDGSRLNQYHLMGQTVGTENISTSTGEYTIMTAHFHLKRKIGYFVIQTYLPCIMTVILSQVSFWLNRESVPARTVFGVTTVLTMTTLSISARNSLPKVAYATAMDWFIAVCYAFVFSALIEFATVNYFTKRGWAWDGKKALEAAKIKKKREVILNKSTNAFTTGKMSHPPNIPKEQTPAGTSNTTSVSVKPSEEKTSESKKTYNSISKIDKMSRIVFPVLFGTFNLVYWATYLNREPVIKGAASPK

[4] = target: T2, GABA-A receptor; alpha-1/beta-3/gamma-2 (Homo sapiens, UniProt P14867+P18507+P28472); test: Displacement of [3H]flumazenil from GABAA alpha-1-beta-3-gamma-2 receptor; format: protein-complex assay
T2 sequence (P14867 whole entry): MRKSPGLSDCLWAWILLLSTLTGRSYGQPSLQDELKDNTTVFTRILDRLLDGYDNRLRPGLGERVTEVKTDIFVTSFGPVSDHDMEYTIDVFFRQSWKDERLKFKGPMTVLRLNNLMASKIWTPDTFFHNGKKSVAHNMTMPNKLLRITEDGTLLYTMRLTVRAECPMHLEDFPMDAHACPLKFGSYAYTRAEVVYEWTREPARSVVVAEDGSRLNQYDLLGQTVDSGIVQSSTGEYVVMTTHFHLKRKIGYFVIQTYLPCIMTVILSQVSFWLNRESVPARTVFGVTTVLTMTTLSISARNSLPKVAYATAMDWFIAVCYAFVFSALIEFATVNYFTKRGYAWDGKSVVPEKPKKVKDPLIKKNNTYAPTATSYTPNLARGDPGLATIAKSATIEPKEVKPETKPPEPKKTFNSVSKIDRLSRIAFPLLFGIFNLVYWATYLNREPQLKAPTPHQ
T2 sequence (P18507 whole entry): T1 sequence (P18507 whole entry)
T2 sequence (P28472 whole entry): T1 sequence (P28472 whole entry)

[5] = target: T3, GABA-A receptor; alpha-3/beta-3/gamma-2 (Homo sapiens, UniProt P18507+P28472+P34903); test: Displacement of [3H]flumazenil from GABAA alpha-3-beta-3-gamma-2 receptor; format: protein-complex assay
T3 sequence (P18507 whole entry): T1 sequence (P18507 whole entry)
T3 sequence (P28472 whole entry): T1 sequence (P28472 whole entry)
T3 sequence (P34903 whole entry): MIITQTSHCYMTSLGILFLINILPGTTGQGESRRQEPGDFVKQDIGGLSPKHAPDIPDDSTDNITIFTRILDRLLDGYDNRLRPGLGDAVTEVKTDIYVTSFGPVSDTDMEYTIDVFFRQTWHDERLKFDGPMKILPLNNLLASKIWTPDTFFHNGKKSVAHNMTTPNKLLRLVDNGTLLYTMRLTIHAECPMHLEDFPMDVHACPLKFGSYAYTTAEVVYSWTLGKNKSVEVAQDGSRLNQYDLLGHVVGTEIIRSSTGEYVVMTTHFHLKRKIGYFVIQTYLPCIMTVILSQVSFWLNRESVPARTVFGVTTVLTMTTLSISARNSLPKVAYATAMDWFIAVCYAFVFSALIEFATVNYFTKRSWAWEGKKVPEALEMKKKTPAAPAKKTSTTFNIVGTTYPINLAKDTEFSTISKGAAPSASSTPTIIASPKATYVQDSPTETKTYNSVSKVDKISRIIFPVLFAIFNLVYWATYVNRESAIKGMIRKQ

[6] = target: T4, GABA-A receptor; alpha-2/beta-3/gamma-2 (Homo sapiens, UniProt P18507+P28472+P47869); test: Displacement of [3H]flumazenil from GABAA alpha-2-beta-3-gamma-2 receptor; format: protein-complex assay
T4 sequence (P18507 whole entry): T1 sequence (P18507 whole entry)
T4 sequence (P28472 whole entry): T1 sequence (P28472 whole entry)
T4 sequence (P47869 whole entry): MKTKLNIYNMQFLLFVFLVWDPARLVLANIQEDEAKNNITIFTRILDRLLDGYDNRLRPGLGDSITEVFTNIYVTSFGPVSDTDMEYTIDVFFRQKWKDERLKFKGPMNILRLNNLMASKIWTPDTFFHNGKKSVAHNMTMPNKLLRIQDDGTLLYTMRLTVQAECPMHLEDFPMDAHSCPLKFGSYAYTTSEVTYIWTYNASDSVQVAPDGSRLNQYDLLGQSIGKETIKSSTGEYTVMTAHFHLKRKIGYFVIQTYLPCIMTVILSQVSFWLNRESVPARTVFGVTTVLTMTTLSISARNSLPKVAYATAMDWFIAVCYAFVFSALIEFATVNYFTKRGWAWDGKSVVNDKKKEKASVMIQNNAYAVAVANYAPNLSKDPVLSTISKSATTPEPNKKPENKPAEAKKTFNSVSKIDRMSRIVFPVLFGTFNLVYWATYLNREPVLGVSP

[7] = Selectivity ratio of Ki for GABAA alpha-1-beta-3-gamma-2 receptor to Ki for GABAA alpha-5-beta-3-gamma-2 receptor
[8] = target: GABA-A receptor; alpha-2/beta-3/gamma-2 (Homo sapiens) (UniProt P18507+P28472+P47869); test: Inverse agonist activity at GABAA alpha-2-beta-3-gamma-2 receptor assessed as modulation of GABA-induced chloride ion flux by electrophysiology assay relative to GABA; format: functional
[9] = target: GABA-A receptor; alpha-3/beta-3/gamma-2 (Homo sapiens) (UniProt P18507+P28472+P34903); test: Inverse agonist activity at GABAA alpha-3-beta-3-gamma-2 receptor assessed as modulation of GABA-induced chloride ion flux by electrophysiology assay relative to GABA; format: functional
[10] = tested on: Rattus norvegicus; test: Behavioral effect in Lister hooded rat assessed as reversal of Scopolamine-induced impairment of working memory at 1 mg/kg, ip administered 30 mins before Scopolamine challenge by delayed match to position test; format: functional, organism-based; set-up: dose 1 mg/kg
[11] = Selectivity ratio of Ki for GABAA alpha-2-beta-3-gamma-2 receptor to Ki for GABAA alpha-5-beta-3-gamma-2 receptor
[12] = Selectivity ratio of Ki for GABAA alpha-3-beta-3-gamma-2 receptor to Ki for GABAA alpha-5-beta-3-gamma-2 receptor
[13] = Oral bioavailability in rat; format: ADME, organism-based; settings: in vivo
[14] = Solubility of the compound; format: physicochemical
[15] = Ratio of drug level in brain to plasma in rat; format: ADME, organism-based; settings: brain and plasma
[16] = Permeability by PAMPA; format: ADME; settings: read-out: permeability
[17] = Clearance in rat; format: ADME, organism-based; settings: in vivo
[18] = Half life in rat; format: ADME, organism-based; settings: in vivo
[19] = Volume of distribution at steady state in rat; format: ADME, organism-based; settings: in vivo, read-out: Vdss
[20] = Lipophilicity, log D at pH 7.4; format: physicochemical; settings: buffer
[21] = tested on: Rattus norvegicus; test: Behavioral effect in Lister hooded rat assessed as reversal of Scopolamine-induced impairment of working memory at 1 to 3 mg/kg, ip administered 30 mins before Scopolamine challenge by delayed match to position test; format: functional, organism-based
[22] = tested on: Liver microsomes; test: Clearance in human liver microsomes; format: ADME, Microsome
[23] = tested on: Rattus norvegicus; test: Behavioral effect in Lister hooded rat assessed as inhibition of scopolamine-induced impairment of working memory at 1 to 3 mg/kg, po after 30 mins by delayed match to position test; format: functional, organism-based

Cc1ncn2c1Cn1ncnc1-c1cc(Br)ccc1-2
Efficacy [1]: -16%
Efficacy [2]: -42%
Ki [3]: 6 nM
Ki [4]: 136 nM
Ki [5]: 132 nM
Ki [6]: 186 nM

Cc1cc(Cc2nc3n(n2)Cc2c(C)ncn2-c2ccc(O)cc2-3)on1
Efficacy [2]: -7%
Ki [3]: 1.2 nM
Ratio Ki [7]: 99

Cc1cc(-c2nnc3c4ccccc4c(OCc4ccccn4)nn23)no1
Efficacy [1]: -9%
Efficacy [2]: -41%
Efficacy [8]: 11%
Efficacy [9]: 10%
Ki [3]: 1.5 nM
Ki [4]: 1.5 nM
Activity [10]: Active
Ki [5]: 1.5 nM

COCc1nc2n(n1)Cc1c(C)ncn1-c1ccc(Br)cc1-2
Efficacy [2]: -3%
Ki [3]: 13 nM
Ki [4]: 619 nM
Ki [5]: 592 nM
Ki [6]: 693 nM

COc1ccc2c(c1)-c1nc(Cc3cc(C)no3)nn1Cc1c(C)ncn1-2
Efficacy [2]: -13%
Ratio Ki [11]: 193
Ki [3]: 2.2 nM
Ratio Ki [12]: 222
Ratio Ki [7]: 307

Cc1ccc2c(c1)-c1nc(Cc3cc(C)no3)nn1Cc1c(C)ncn1-2
Efficacy [2]: -16%
Ratio Ki [11]: 332
Ki [3]: 0.8 nM
Ratio Ki [12]: 360
Ratio Ki [7]: 620

Cc1cc(Cc2nc3n(n2)Cc2c(C)ncn2-c2ccc(Br)cc2-3)on1
bioavailability [13]: 34%
solubility [14]: 7 µg/mL (≈ 17 µM)
Kp [15]: 0.2
Efficacy [2]: -27%
Ratio Ki [11]: 174
Ki [3]: 0.6 nM
Papp [16]: 3.3 ×10⁻⁶ cm/s
Ki [4]: 188 nM
clearance [17]: 39 mL/min/kg
half-life [18]: 1.4 h
Ki [5]: 73 nM
Ratio Ki [12]: 122
Ki [6]: 105 nM
Ratio Ki [7]: 314
Vd [19]: 4.6 L/kg
logD [20]: 2.6

Cc1ncn2c1Cn1nc(C(C)(C)C)nc1-c1cc(Br)ccc1-2
Ki [3]: 146 nM
Ki [4]: 3160 nM
Ki [5]: 1210 nM
Ki [6]: 1070 nM

Cc1noc(Cc2nc3n(n2)Cc2c(C)ncn2-c2ccc(Br)cc2-3)n1
Efficacy [2]: -18%
Ki [3]: 0.9 nM
Ki [4]: 469 nM
Ki [5]: 277 nM
Ki [6]: 317 nM

Cc1ncn2c1Cn1nc(CN3CCCC3=O)nc1-c1cc(Br)ccc1-2
bioavailability [13]: 32%
Activity [21]: Dose-dependent effect
solubility [14]: 550 µg/mL (≈ 1330 µM)
CL [22]: 3000 µL/min/mg
Kp [15]: 0.09
Efficacy [2]: -34%
Activity [23]: inactive
Ki [3]: 7 nM
Papp [16]: 1.5 ×10⁻⁶ cm/s
Ki [4]: 624 nM
clearance [17]: 30 mL/min/kg
half-life [18]: 0.8 h
Ki [5]: 515 nM
Ki [6]: 669 nM
Vd [19]: 1.3 L/kg
logD [20]: 1.5

Cc1cc(Cc2nc3n(n2)Cc2c(C)ncn2-c2ccccc2-3)on1
Ratio Ki [11]: 20
Ki [3]: 1.6 nM
Ratio Ki [12]: 16
Ratio Ki [7]: 57

Cc1nc2n(n1)Cc1c(C)ncn1-c1ccc(Br)cc1-2
Efficacy [2]: -17%
Ki [3]: 20 nM
Ki [4]: 1420 nM
Ki [5]: 1620 nM
Ki [6]: 3160 nM

Cc1cc(Cc2nc3n(n2)Cc2c(C)ncn2-c2ccc(OC(F)(F)F)cc2-3)on1
Efficacy [2]: -20%
Ratio Ki [11]: 83
Ki [3]: 11 nM
Ratio Ki [12]: 111
Ratio Ki [7]: 68

Cc1ncn2c1Cn1nc(CC3CC3)nc1-c1cc(Br)ccc1-2
Efficacy [2]: -12%
Ratio Ki [11]: 2
Ki [3]: 5 nM
Ki [4]: 538 nM
Ki [5]: 407 nM
Ratio Ki [12]: 2
Ki [6]: 407 nM
Ratio Ki [7]: 2

Reference: ChEMBL document CHEMBL1154267, “Imidazo[1,5-a][1,2,4]-triazolo[1,5-d][1,4]benzodiazepines as potent and highly selective GABAA alpha5 inverse agonists with potential for the treatment of cognitive dysfunction” (Bioorg Med Chem Lett, 2009)
